Source: US20210364494A1, “CELL-SUBSTRATE IMPEDANCE MONITORING OF CANCER CELLS OF DIFFERENT LINEAGE, ORIGIN, OR STAGE” (ACEA BIOSCIENCES, INC., priority 2017, published 2021)

What was measured:
Assay type in all cases: cell-based, human
[1] = test system: NK-92-mediated cytolysis of A549 cells; experiment: Inhibition of NK-92-mediated cytolysis of target cells by signaling pathway inhibitors (RT-CES)
Method: (FIG. 31A) A549 cells were seeded in the chambers of E-PLATES. Twenty four hours after seeding NK-cells at a density of 16:1 (E/T ratio) were pre-incubated with the different concentrations of the MEK inhibitor PD 98059 for thirty minutes and then added to A549 cells at the indicated time point (arrow). The viability of A549 cells were continually monitored using the RT-CES system. (FIG. 31B) The extent of NK-92 mediated cytolystic activity in the presence of MEK inhibitor was calculated at the indicated times post-NK addition as described in materials and methods section. (FIG. 31C) The effect of PI3 Kinase inhibitor Wortmannin on NK-92 mediated cytolysis of A549 cells. The cells were treated with the inhibitor as described in (FIG. 31A). (FIG. 31D) Percent cytolytic activity of NK-92 cells was calculated at the end of the experiment described in (FIG. 31C).
Cytolytic analysis. Target cells were seeded into the chambers of either 16-chamber or 96-chamber E-plate in 100 μL of media. Cell growth was dynamically monitored using the RT-CES system for a period of 24-34 hours, depending on the experiment until they reached log growth phase and formed a monolayer. […]
(§1) Inhibition of NK-mediated cytolysis of target cells by agents which block the signaling pathways leading to cytotoxicity. […] We calculated percent inhibition of cytolysis for both inhibitors at different time points after NK addition. […]

A549 cells = experiment: Dynamic monitoring of drug interaction with target cells by RT-CES
Method: Drug Treatment and Cytotoxicity Assessment. […] The indicated cell numbers were seeded per chamber of ACEA's 16X or 96X E-Plate (cartridge for monitoring cell-substrate impedance) in 100 μL final volume.
In order to observe the kinetics of drug interaction with target cells, A549 non-small lung cancer cells were seeded in ACEA 96X E-Plate™ and continuously monitored until the cells reached the log growth phase at which point different concentrations of paclitaxel were added to the cells at the indicated final concentration. […] While it remains to be determined if this phenomenon is due to metabolism and inactivation of paclitaxel or due to the emergence of paclitaxel-resistant subpopulation, this experiment clearly exemplifies the tremendous advantage of real-time measurement which is offered by the RT-CES system and allows the user to the opportunity to observe and assess the entire history of drug interaction with the target cells which provides further information in addition to cell viability or cytotoxicity. The phenomenon observed in FIG. 20A would've been easily missed by traditional single-point assays such as MTT.
Yet another major advantage of using the RT-CES system to continually monitor the interaction of drugs with target cells is that the user can obtain insight into the mechanism of action of the drug of interest. […] The cells were treated with either DMSO as the vehicle control or with 100 μM Olomoucine which is a CDK inhibitor and induces cell cycle arrest either at G1→S transition or at the G2→M transition, depending on the cell line. […] The control cells treated with DMSO continue to proliferate until they reach confluence, at which time they are contact inhibited and the Cell Index recording levels off. […]
as §1

H460 cells = experiment: Time-dependent cell index of cancer cells treated with anticancer drug (cell-substrate impedance)
Method: In this experiment, H460 cells were introduced into chambers of a 16X cell-substrate impedance monitoring cartridge (16X E-Plate). The cartridge was positioned on a cartridge station that was located in an incubator maintaining conditions of 37° C. and 5% CO2. The cells were cultured and treated at their exponential growth phase with different concentrations of paclitaxel. The dynamic response of the cells to different doses of paclitaxel was monitored by monitoring cell-substrate impedance in real time every 15 minutes for 50 hours after treatment using a cell-substrate impedance monitoring system. The cell-substrate impedance monitoring system calculated the cell index at each time point monitored and plotted the cell index as a function of time. […] However, the cell index reached a minimum at a time dependent on the compound concentration, between about 15 hours and 20 hours after compound addition. After that point, there was a gradual increase in cell index in these chambers.
H460 cells were introduced into chambers of a 16X cell-substrate impedance monitoring cartridge (16X E-Plate). […] The dynamic response of the cells to different doses of AC101103 was monitored by measuring impedance in real time every 30 minutes for about 20 hours after treatment on the cell-substrate monitoring system. […]

[2] = A549 cells, highest concentration

COc1cccc(-c2cc(=O)c3ccccc3o2)c1N [PD98059]
inhibition of NK-92-mediated cytolysis ([1]; NK-92 pre-incubated with inhibitor, then added to A549 target cells): dose-dependently inhibited NK-92-mediated cytolysis of A549 cells | time dependence of percent inhibition of cytolysis ([1]; different time points after NK addition): consistent inhibition of cytolysis at all the indicated time points | effect of inhibitor alone on target cell baseline (A549 cells; A549 target cells incubated with inhibitor alone, no NK cells): minimal effect on the baseline

CC(=O)O[C@H]1C(=O)[C@@]2(C)[C@H]([C@H](OC(=O)c3ccccc3)[C@]3(O)C[C@H](OC(=O)[C@H](O)[C@@H](NC(=O)c4ccccc4)c4ccccc4)C(C)=C1C3(C)C)[C@]1(OC(C)=O)CO[C@@H]1C[C@@H]2O [paclitaxel]
time over which cell index exhibited a near-constant value (H460 cells; 33 nanomolar): about 15 hours | cell index response after compound addition (H460 cells; concentrations between 67 nanomolar and 500 nanomolar): gradual decrease in cell index | initial effect on Cell Index (with Annexin V staining) (A549 cells; [2]): initially induces a cytotoxic effect which is mainly due to cell death | later course of Cell Index after the initial effect (A549 cells; [2]): recover from the initial cytotoxic effect of the drug and start to re-proliferate
